In this test the test system is CMP-D-C3 (C3, ΔP1a) (RNA, riboswitch) GGAGCGUUACGUCCGCCCACGGCUCUUUAAAAACAAAAGGA
Nature of the test: ITC. As to conditions: 100 mM K+, 20 mM Mg2+; 50 mM K-MOPS pH 7.5, 25 °C.

For orientation: Kd means the free concentration of one partner at which half of the binding sites on the other are occupied at equilibrium, for simple one-to-one binding.

Consider `NC(=O)c1ccc[n+]([C@@H]2O[C@H](COP(=O)(O)O)[C@@H](O)[C@H]2O)c1`, for which the dissociation constant Kd is 18.3 ± 1.2 µM.

Values taken from article PMC9841397 (2023).
